Consider 20 molecules from patent publication US8269026B2, “Lupane derivatives useful for treating HIV” (priority 2008, dated 2012).

For orientation: pIC50 means the IC50 on a negative log10 scale, so that one unit is a factor of ten.

SMILES strings stand for the structures. pIC50: −log10 of the molar value.

The subject of the first assay is HIV-1 (HIVIIIB) replication in MT2 cell line. The experiment in a line: HIV-1 replication in MT2 cell line with and without 30% human serum (viral RT activity in supernatant). In kind it is cell-based. As to conditions: Human immunodeficiency virus 1, MT2 cells, with 30% human serum, average IC50 if tested more than once, read-out: MT2 (HIVIIIB) with HS 30% IC50 range. In a few lines: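 Read-out is supernatant reverse transcriptase activity on day 5 post-infection, giving IC50 and IC90. Compounds were titrated in complete medium ± 30% human serum, re-dosed after 3 days, on MT2 cells exposed for 3 h to HIVIIIB at MOI 0.5 then washed.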
With `Cc1cc(C(=O)N[C@@]23CC[C@]4(C)[C@H](CC[C@@H]5[C@@]6(C)CC[C@H](OC(=O)CC(C)(C)C(=O)O)C(C)(C)[C@@H]6CC[C@]54C)C2=C(C(C)C)C(=O)C3)cc(C)n1` [19-64, 3β-O-(3′,3′-Dimethylsuccinyl)-17β-(2,6-dimethylpyridin-4-yl)amido-21-oxolup-18-ene], the pIC50 was over 6.70.
As to `CC(C)C1=C2[C@H]3CC[C@@H]4[C@@]5(C)CC[C@H](OC(=O)CC(C)(C)C(=O)O)C(C)(C)[C@@H]5CC[C@@]4(C)[C@]3(C)CC[C@@]2(NC(=O)[C@@H]2CCCCN2C)CC1=O` [19-65, 3β-O-(3′,3′-Dimethylsuccinyl)-17β-((S)-1-methylpiperidine-2-amido)-21-oxolup-18-ene], the pIC50 was over 6.70.
Still for that read-out and setting: the same measure for `CC(C)C1=C2[C@H]3CC[C@@H]4[C@@]5(C)CC[C@H](OC(=O)CC(C)(C)C(=O)O)C(C)(C)[C@@H]5CC[C@@]4(C)[C@]3(C)CC[C@@]2(NC(=O)[C@H]2CCCCN2C)CC1=O` [19-66, 3β-O-(3′,3′-Dimethylsuccinyl)-17β-((R)-1-methylpiperidine-2-amido)-21-oxolup-18-ene]: over 6.70; for `Cc1noc(C(=O)N[C@@]23CC[C@]4(C)C(CCC5[C@@]6(C)CC[C@H](OC(=O)CC(C)(C)C(=O)O)C(C)(C)C6CC[C@]54C)C2=C(C(C)C)C(=O)C3)n1` (stereo partly drawn) [19-67, 3β-O-(3′,3′-Dimethylsuccinyl)-17β-(3-methyl-[1,2,4]oxadiazole-5-amido)-21-oxolup-18-ene]: over 6.70; for `Cc1nc(C(=O)N[C@@]23CC[C@]4(C)C(CCC5[C@@]6(C)CC[C@H](OC(=O)CC(C)(C)C(=O)O)C(C)(C)C6CC[C@]54C)C2=C(C(C)C)C(=O)C3)no1` (stereo partly drawn) [19-68, 3β-O-(3′,3′-Dimethylsuccinyl)-17β-(5-methyl-[1,2,4]oxadiazole-3-amido)-21-oxolup-18-ene]: over 6.70.
Same read-out and setting: the same measure for `Cc1nnc(C(=O)N(C)[C@@]23CC[C@]4(C)[C@H](CC[C@@H]5[C@@]6(C)CC[C@H](OC(=O)CC(C)(C)C(=O)O)C(C)(C)[C@@H]6CC[C@]54C)C2=C(C(C)C)C(=O)C3)o1` [19-69, 3β-O-(3′,3′-Dimethylsuccinyl)-17β-[methyl-(5-methyl-[1,3,4]oxadiazole-2-carbonyl)-amino]-21-oxolup-18-ene]: over 6.70; for `CC(C)C1=C2C3CCC4[C@@]5(C)CC[C@H](OC(=O)CC(C)(C)C(=O)O)C(C)(C)C5CC[C@@]4(C)[C@]3(C)CC[C@@]2(NC(=O)C2CC3CCC(C2)O3)CC1=O` (stereo partly drawn) [19-70, 3β-O-(3′,3′-Dimethylsuccinyl)-17β-(8β-oxa-bicyclo[3.2.1]octane-3-amido)-21-oxolup-18-ene]: over 6.70; for `Cc1nc(C(=O)N[C@@]23CC[C@]4(C)C(CCC5[C@@]6(C)CC[C@H](OC(=O)CC(C)(C)C(=O)O)C(C)(C)C6CC[C@]54C)C2=C(C(C)C)C(=O)C3)cs1` (stereo partly drawn) [19-72, 3β-O-(3′,3′-Dimethylsuccinyl)-17β-(2-methyl-1,3-thiazole-4-amido)-21-oxolup-18-ene]: over 6.70.
Still for that read-out and setting: the same measure for `CC(C)C1=C2C3CCC4[C@@]5(C)CC[C@H](OC(=O)CC(C)(C)C(=O)O)C(C)(C)C5CC[C@@]4(C)[C@]3(C)CC[C@@]2(NC(=O)CN2CCC2)CC1=O` (stereo partly drawn) [19-73, 3β-O-(3′,3′-Dimethylsuccinyl)-17β-(1-azetidin-acetamido)-21-oxolup-18-ene]: over 6.70; for `CC(C)C1=C2C3CCC4[C@@]5(C)CC[C@H](OC(=O)CC(C)(C)C(=O)O)C(C)(C)C5CC[C@@]4(C)[C@]3(C)CC[C@@]2(NC(=O)C(=O)N(C)C)CC1=O` (stereo partly drawn) [19-74, 3β-O-(3′,3′-Dimethylsuccinyl)-17β-(N′,N′-dimethyl-oxalamido)-21-oxolup-18-ene]: over 6.70; for `Cc1nnc(C(=O)N[C@@]23CC[C@]4(C)C(CCC5[C@@]6(C)CC[C@H](OC(=O)CC(C)(C)CC(=O)O)C(C)(C)C6CC[C@]54C)C2=C(C(C)C)C(=O)C3)o1` (stereo partly drawn) [19-75, 3β-O-(3′,3′-Dimethylglutaryl)-17β-(5-methyl-[1,3,4]oxadiazole-2-amido)-21-oxolup-18-ene]: over 6.70.
In the case of `Cc1nc(C(=O)N[C@@]23CC[C@]4(C)C(CCC5[C@@]6(C)CC[C@H](OC(=O)CC(C)(C)C(=O)O)C(C)(C)C6CC[C@]54C)C2=C(C(C)C)C(=O)C3)co1` (stereo partly drawn) [19-76, 3β-O-(3′,3′-Dimethylsuccinyl)-17β-(2-methyl-1,3-oxazole-4-amido)-21-oxolup-18-ene], the pIC50 is over 6.70.
The same measure, in the same setting: with `Cc1ccc(C(=O)N[C@@]23CC[C@]4(C)C(CCC5[C@@]6(C)CC[C@H](OC(=O)CC(C)(C)C(=O)O)C(C)(C)C6CC[C@]54C)C2=C(C(C)C)C(=O)C3)s1` (stereo partly drawn) [19-77, 3β-O-(3′,3′-Dimethylsuccinyl)-17β-(5-methyl-thiophene-2-amido)-21-oxolup-18-ene] the figure was over 6.70; with `CC(C)C1=C2C3CCC4[C@@]5(C)CC[C@H](OC(=O)CC(C)(C)C(=O)O)C(C)(C)C5CC[C@@]4(C)[C@]3(C)CC[C@@]2(NC(=O)c2ccsc2)CC1=O` (stereo partly drawn) [19-78, 3β-O-(3′,3′-Dimethylsuccinyl)-17β-(thiophene-3-amido)-21-oxolup-18-ene], over 6.70; with `CCc1nnc(C(=O)N[C@@]23CC[C@]4(C)C(CCC5[C@@]6(C)CC[C@H](OC(=O)CC(C)(C)C(=O)O)C(C)(C)C6CC[C@]54C)C2=C(C(C)C)C(=O)C3)o1` (stereo partly drawn) [19-79, 3β-O-(3′,3′-Dimethylsuccinyl)-17β-(5-ethyl-[1,3,4]-oxadiazole-2-amido)-21-oxolup-18-ene], over 6.70.
Still for that read-out and setting: the same measure for `Cc1cnc(C(=O)N[C@@]23CC[C@]4(C)C(CCC5[C@@]6(C)CC[C@H](OC(=O)CC(C)(C)C(=O)O)C(C)(C)C6CC[C@]54C)C2=C(C(C)C)C(=O)C3)o1` (stereo partly drawn) [19-80, 3β-O-(3′,3′-Dimethylsuccinyl)-17β-(5-methyl-[1,3]-oxazole-2-amido)-21-oxolup-18-ene]: over 6.70.
On the same count and under the same terms, the same measure for `Cc1nnc(C(=O)N[C@@]23CC[C@]4(C)C(CCC5[C@@]6(C)CC[C@H](OC(=O)[C@H]7CCC[C@@H](C(=O)O)C7)C(C)(C)C6CC[C@]54C)C2=C(C(C)C)C(=O)C3)o1` (stereo partly drawn) [19-81, 3β-O-(cis-Cyclohexane-3′-carboxylic acid-1′-carboxyl)-17β-[(5-methyl-[1,3,4]oxadiazol-2-carbonyl)-amino]-21-oxolup-18-ene]: 6.00 to 6.70; for `CC(C)C1=C2C3CCC4[C@@]5(C)CC[C@H](OC(=O)CC(C)(C)C(=O)O)C(C)(C)C5CC[C@@]4(C)[C@]3(C)CC[C@@]2(NC(=O)c2cn[nH]c2)CC1=O` (stereo partly drawn) [19-82, 3β-O-(3′,3′-Dimethylsuccinyl)-17β-(1H-pyrazole-4-amido)-21-oxolup-18-ene]: over 6.70; for `CC(C)C1=C2C3CCC4[C@@]5(C)CC[C@H](OC(=O)CC(C)(C)C(=O)O)C(C)(C)C5CC[C@@]4(C)[C@]3(C)CC[C@@]2(NC(=O)c2nnc(C(C)C)o2)CC1=O` (stereo partly drawn) [19-84, 3β-O-(3′,3′-Dimethylsuccinyl)-17β-(5-isopropyl-[1,3,4]-oxadiazole-2-amido)-21-oxolup-18-ene]: over 6.70.

Staying with this assay, now noted: MT2 cells, with 30% human serum, average IC50 if tested more than once, read-out: MT2 (HIVIIIB) with HS 30% IC50 range.
For `CC(C)C1=C2C3CCC4[C@@]5(C)CC[C@H](OC(=O)CC(C)(C)C(=O)O)C(C)(C)C5CC[C@@]4(C)[C@]3(C)CC[C@@]2(NC(=O)C2CC3CCC(C2)O3)CC1=O` (stereo partly drawn) [19-71, 3β-O-(3′,3′-Dimethylsuccinyl)-17β-(8α-oxa-bicyclo[3.2.1]octane-3-amido)-21-oxolup-18-ene], the pIC50 is over 6.70.
